Reference: US8618145B2, “Small molecular compounds capable of accelerating proliferation of stem cells and use thereof” (priority 2009, dated 2013)

What was measured:
Rat neural stem cells = test: rat neural stem cell proliferation, ATP method; format: cell-based; conditions: serum free medium; for proliferation rate of neural stem cells in rat: rat adult neural stem cells
Description: (§1) Embryonic stem cell (obtained from oosperm according to the conventional method) is cultured in serum free medium (a conventional medium, such as DMEM/F12, αMEM, 1640, etc.). The experiments are divided into control group, FGF group, neural stem cells proliferation accelerator Ia group, FGF+neural stem cells proliferation accelerator Ia group. After culturing for 1 to 4 days, the kit CellTiter-Glo®Luminescent Cell Viability Assay (Promega) is used to detect cells proliferation by ATP method. The ATP method is performed in accordance with operational steps of the kit.
Rat neural stem cells are cultured in serum free medium. The experiments are divided into control group, FGF group, small molecular compound Ia group, and FGF+small molecular compound Ia group. The detection is carried out by ATP method (see the method in Example 6). Small molecular compound Ib, Ic, Id, Ie, If, Ig also conduct said experiment.

[1] = tested on: hippocampus cells of AD rat; test: HE staining of hippocampus cells in AD rat; format: in vivo; conditions: AD rat of Example 13, dosage-dependent, FIG. 6 and FIG. 7
Description: The rats in Example 13 are perfused and their brains are taken. Rats are anesthetized with 10% chloral hydrate (0.3 ml/100 g). Heparin (200 ug/kg) is injected to the left ventricular, and the right atrial appendage is cut off. 40 ml physiological saline and then 300 ml 4% paraformaldehyde are perfused to the left ventricular to harden the brain. Brain taken: after breaking the neck, the skull is peeled to expose olfactory bulb, peeling it from olfactory bulb with a small curved scissor. After optic nerve is cut off, it is slowly peeled to naturally fall, the adhesion sites are cut off, and are placed into 4% paraformaldehyde solution overnight. It is dehydrated with gradient alcohol and is embedded in olefin, sectioned and floated.
HE staining: dewaxing with dimethylbenzene twice, each for 3 min. Hydration: hydration with descending concentration gradient alcohol: 100%→95%→90%→80%→70%. Dehydration lasts for 2˜3 mins to remove dimethylbenzene during each gradient. Water washing: ethanol is removed. It is dipped into a hematoxylin solution for 5-10 mins, and washed with tap-water. It is dipped into a dilute hydrochloric acid-ethanol solution to carry out color separation for only a few seconds. It is washed with tap-water and dipped into dilute ammonia to make the cell nucleus blue for 3-5 mins. […] It is mounted with neutral resin, and observed by […].

[2] = tested on: AD rat model (aggregated Aβ1-40 injected in hippocampus); test: pharmacodynamic evaluation in AD rat (Morris water maze); format: in vivo; conditions: tail vein injection, administration for 14 days, FIG. 5
Description: Establishment of AD rat model: in the experiment, stereotaxic instrument and micro-injection pump are used to inject aggregated Aβ1-40 (5 ug/ul) 2 ul (0.4 ul/min, 5 min) to the dorsal blade of the dentate gyrus in the hippocampus of rat (3.0 mm behind anterior fontanelle, open at right 2.0 mm, subdural 3.2 mm, Incisor hook plane is 2.4 mm lower than the interaural line plane), the model is established after 2 weeks. […]
Pharmacodynamic experiment (Morris water maze): the experimental apparatus is a rustless steel round pool with a height of 60 cm, and a diameter of 150 cm (both the bottom and wall of the pool are covered by black paster to facilitate the video camera for distinguishing the white rats in pool), the video camera is connected to a computer; the pool is divided into four quadrants, and a platform is placed in the middle of the first quadrant. […] The experimental rats enter water from four different positions, the video camera records the swimming paths of each experimental rats, and the experimental results are analyzed by image processing software. […] During the experiment, the time the rat taken from entering water to climbing onto the platform (i.e., escape latency) is recorded, and the rat is allowed to stay on the platform for 10 sec. […] The escape latency of the animals, times of rearing up, and spatial bias are recorded and compared.

Human neural stem cells = test: human neural stem cell proliferation, MTT; format: cell-based; conditions: DMEM/F12+10% fetal bovine serum+EGF, bFGF, 4 days, FIG. 2
Description: Human neural stem cells (provided according to conventional methods by Peking University Stem Cell Research Center) is prepared into a single cell suspension by using a medium (DMEM/F12+10% fetal bovine serum+20 ng/mIEGF, bFGF), and is seeded at 2×10^4/well on 96-well plate. The experiments are divided into medium control group (a group without adding a medicine); medium+small molecular compound Ia group (a group with a medicine added). After culturing for 4 days, MTT (5 mg/ml) 10 ul is added. After incubating for 4 hours, a 100 μl lysis solution (10% SDS, 0.1% NH4Cl) is added. The mixture is incubated overnight. The light absorption value is detected at 490 nm.
The experimental results are shown in FIG. 2, the height of the histogram represents absorbance, which is proportional to the number of cells (which has the same vertical coordinate in the MTT method, and is not explained one by one).

[3] = tested on: rat mesenchymal stem cells; test: rat mesenchymal stem cell proliferation, MTT; format: cell-based; conditions: α-MEM+10% fetal bovine serum, 2 days, FIG. 4
Description: (§2) Human (rat) mesenchymal stem cells (a cell line obtained according to conventional method) is prepared into a single cell suspension by using a medium (α-MEM+10% fetal bovine serum), and is seeded at 1×10^4/well on 96-well plate. The experiments are divided into medium control group; and medium+small molecular compound Ia group. After culturing for 2 days, MTT (5 mg/ml) 10 ul is added. After incubating for 4 hours, a 100 μl lysis solution (10% SDS, 0.1% NH4Cl) is added. The mixture is incubated overnight. The light absorption value is detected at 490 nm.

Embryonic stem cell = test: embryonic stem cell proliferation, ATP method (CellTiter-Glo); format: cell-based; conditions: serum free medium, culturing 1 to 4 days, FIG. 1
Description: as §1
Therefore, Ia accelerates the proliferation of embryonic stem cells.

[4] = tested on: Human mesenchymal stem cells; test: human mesenchymal stem cell proliferation, MTT; format: cell-based; conditions: α-MEM+10% fetal bovine serum, 2 days, FIG. 3
Description: as §2

CSc1nnc(-c2ccc(NC(=S)NN)cc2)o1 [Ib, 4-(4-(5-(methylthio)-1,3,4-oxadiazol-2-yl)phenyl) thiosemicarbazide]
proliferation rate of neural stem cells in rat (Rat neural stem cells): 2 | effect on rat neural stem cell proliferation (in words) (Rat neural stem cells): accelerate rat neural stem cell proliferation

COc1ccc(NNC(=S)Nc2ccc(-c3nnc(S)o3)cc2)cc1 [If]
proliferation rate of neural stem cells in rat (Rat neural stem cells): 2.3 | effect on rat neural stem cell proliferation (in words) (Rat neural stem cells): accelerate rat neural stem cell proliferation

CNC(=S)Nc1ccc(-c2nnc(SC)o2)cc1 [Ic, 1-methyl-3-(4-(5-(methylthio)-1,3,4-oxadiazol-2-yl)phenyl)thiourea]
proliferation rate of neural stem cells in rat (Rat neural stem cells): 1.5 | effect on rat neural stem cell proliferation (in words) (Rat neural stem cells): accelerate rat neural stem cell proliferation

NNC(=S)Nc1ccc(-c2nnc(S)o2)cc1 [Ia, 4-(4-(5-mercapto-1,3,4-oxadiazol-2-yl)phenyl) thiosemicarbazide]
degeneration of hippocampus cells (HE staining) [1]: less seriously degenerated | ability of learning and memory (water maze) [2]: improved ability of learning and memory | human neural stem cell proliferation (absorbance at 490 nm) (Human neural stem cells): accelerates human neural stem cell proliferation | rat mesenchymal stem cell proliferation [3]: accelerates rat mesenchymal stem cell proliferation | embryonic stem cell proliferation (chemiluminescence intensity) (Embryonic stem cell): significantly increased | proliferation rate of neural stem cells in rat (Rat neural stem cells): 4.2 | effect on rat neural stem cell proliferation (in words) (Rat neural stem cells): accelerate rat neural stem cell proliferation | human mesenchymal stem cell proliferation [4]: accelerates human mesenchymal stem cell proliferation

NNC(=O)Nc1ccc(-c2nnc(S)o2)cc1 [Id, 4-(4-(5-mercapto-1,3,4-oxadiazol-2-yl)phenyl) semicarbazide]
proliferation rate of neural stem cells in rat (Rat neural stem cells): 1.7 | effect on rat neural stem cell proliferation (in words) (Rat neural stem cells): accelerate rat neural stem cell proliferation

CNC(=S)Nc1ccc(-c2nnc(O)o2)cc1 [Ig, 1-methyl-3-(4-(5-oxo-4,5-dihydro-1,3,4-oxadiazol-2-yl)phenyl)thiourea]
proliferation rate of neural stem cells in rat (Rat neural stem cells): 2.4 | effect on rat neural stem cell proliferation (in words) (Rat neural stem cells): accelerate rat neural stem cell proliferation

S=C(NNc1ccc(Cl)cc1)Nc1ccc(-c2nnc(S)o2)cc1 [Ie]
proliferation rate of neural stem cells in rat (Rat neural stem cells): 2.5 | effect on rat neural stem cell proliferation (in words) (Rat neural stem cells): accelerate rat neural stem cell proliferation
